In PubChem BioAssay AID179 (DTP/NCI, 2004):
Where “and” joins values, the source holds several entries; their conditions need not be identical. Equal values may be shown once. Calls of active or inactive are those of the source.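 How the source made its calls: active means compounds giving half or more protection of infected cells from virus-caused growth loss, again on retest; inactive means the rest.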 Where a SMILES comes first, the peptide text is derived from it. The star is where a group is joined. Boc = CC(C)(C)OC(=O)*

System: CEM cells HIV-1 protection, formazan growth assay
Test: NCI AIDS Antiviral Assay
Conditions: for IC50: measured here: growth of uninfected CEM cells
In short: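 Protection of CEM cells against HIV-1 measured as cell growth via soluble formazan read-out, with five concentrations tested on both infected and uninfected cells; failure to protect may reflect toxicity.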

Compound	EC50	IC50	outcome
COC1(C)CCC2(O)C(=O)OC3C(O)COC32O1 (configuration not stated)	> 200 µM	> 200 µM	–
O=C(O)CCSc1nnc(COc2ccc(Cl)cc2)n1-c1ccccc1	> 200 µM	67.6 µM	–
Nc1c(Cl)ncnc1NCCO	> 200 µM	> 200 µM	–
NCCCCC(N)C(=O)NCCNc1ccc(NCCNC(=O)C(N)CCCCN)c2c1C(=O)c1ccccc1C2=O (configuration not stated)	> 100 µM	3.39 µM	–
O=P(O)(O)OC1C(OP(=O)(O)O)C(OP(=O)(O)O)C(OP(=O)(O)O)C(OP(=O)(O)O)C1OP(=O)(O)O (configuration not stated)	> 200 µM	> 200 µM	–
CCOc1ccc(Nc2nc(N)nc(N)c2N=O)cc1	> 151 µM	15.8 µM	–
COC1=CC=C2Nc3nc(N)[nH]c(=O)c3SC2N1 (configuration not stated)	> 178 µM	> 178 µM	–
CN(C)c1ccc(C=Nc2ccc(S(N)(=O)=O)cc2)cc1	> 200 µM	> 200 µM	–
c1ccc2[nH]c(C3=NCCN3)nc2c1	> 53.7 µM	> 53.7 µM	–
CC(C)=CCC[C@@H](C)C1[C@@H](OC2OC(CO)C(O)C(O)C2O)CC2(C)[C@@H]3CC(=O)C4C(C)(C)[C@@H](OC5OC(CO)C(O)C(O)C5O)CC[C@@]45C[C@@]35CC[C@]12C (some centres not stated)	> 33.1 µM	31.6 µM	–
O=C(O)c1ccc2c(c1)C(=O)c1ccccc1C2=O	> 200 µM	97.7 µM	–
COc1ccc(-c2cc3c(c4cc(OC)ccc24)C(=O)OC3=O)cc1	> 11.2 µM	> 11.2 µM	–
c1ccc(-c2cc(-c3ccncc3)cc(-c3ccncc3)n2)cc1	> 200 µM	> 200 µM	–
COc1ccc(/C=C2\CCC/C(=C\c3ccc(O)c(CN4CCCCC4)c3)C2=O)cc1	> 200 µM	3.16 µM	–
O=C1C=C(CCC2=CC(=O)c3ccccc3C2=O)C(=O)c2ccccc21	> 200 µM	91.2 µM	–
O=C1/C(=C\c2ccc(Cl)cc2Cl)Sc2scc(-c3cccc([N+](=O)[O-])c3)[n+]21	–	–	inactive
CCOC(=O)c1cc2nc(NC(=O)c3ccccc3)sc2n1C	> 200 µM	> 200 µM	–
CN(C(=O)c1ccccc1)c1ccc2c(c1)C(=O)c1ccccc1C2=O	> 15.1 µM	> 15.1 µM	–
CN(C)c1ccc(/C=C2\Cc3ccccc3C2=O)cc1Br	> 11 µM	> 11 µM	–
CC(=O)OC(C)CC[P+](c1ccccc1)(c1ccccc1)c1ccccc1 (configuration not stated)	> 200 µM	75.9 µM	–
CC1(O)[C@@H]2O[C@@H]2C2(CCCO2)[C@@H]2O[C@@H]21 (some centres not stated)	> 200 µM	> 200 µM	–

Compound	EC50	IC50	outcome
COc1ccc(CC(COS(=O)(=O)c2ccc(C)cc2)NS(=O)(=O)c2ccc(C)cc2)cc1 (configuration not stated)	> 200 µM	26.9 µM	–
c1ccc(-c2cc(N3CCOCC3)c3ccccc3n2)cc1	–	–	inactive
CCOc1ccccc1/C=C(/C#N)C(N)=O	> 200 µM	117 µM	–
Cc1cc(OP2(=O)Nc3ccccc3-c3ccccc3N2)ccc1Cl	> 70.8 µM	1.26 µM	–
CC(=O)c1cc(CC2Cc3cc4c(cc3C2=O)CCC4)cc2c1CCC2 (configuration not stated)	> 200 µM	12.9 µM	–
CC(C)Cn1cnc2c(NCC(C)O)nc3ccccc3c21 (configuration not stated)	> 200 µM	87.1 µM	–
COc1cc(/C=C2/CCCc3ccccc3C2=O)cc(OC)c1OC	> 200 µM	11.7 µM	–
O=C1C(Cl)=C(Cl)C(=O)N1c1ccccc1Cl	–	–	inactive
Cc1ccc2c(n1)NC(=O)C(Cc1ccccc1)(N=[N+]=[N-])C2=O (configuration not stated)	> 200 µM	> 200 µM	–
Cc1ccc(SC(C)/C=C/NNC2=NC(c3ccccc3)C(c3ccccc3)=NN2)cc1 (configuration not stated)	> 22.4 µM	> 22.4 µM	–
CCCS(=O)(=O)O	> 200 µM	> 200 µM	–
CCC1CN2CCC3(c4ccccc4)CC(C(=O)OC)=CC1C23 (configuration not stated)	> 251 µM	38.9 µM	–
NC(=O)C(NCc1ccccc1)c1ccccc1 (configuration not stated)	> 200 µM	> 200 µM	–
Cc1cc(NS(=O)(=O)c2ccc(Nc3c4ccccc4nc4c(C(=O)NC=O)cccc34)cc2)no1	> 200 µM	12.3 µM	–
CC(=O)OCC12CCC(C)=CC1OC1C(O)C(OC(C)=O)C2(C)C12CO2 (configuration not stated)	> 3.39 µM	0.00331 µM	–
OCC1OC(n2nc(-c3ccccc3)nc2-c2cnccn2)C(O)C1O (configuration not stated)	> 200 µM	> 200 µM	–
ClB1NB(Cl)NB(Cl)N1	> 138 µM	> 138 µM	–
O=Cc1[nH]c(=O)[nH]c(=O)c1CO	> 200 µM	93.3 µM	–
N#CC(C#N)=Cc1c[nH]c2ccccc12	–	–	inactive
S=C(NCCNC(=S)[S][Sn]([c]1ccccc1)([c]1ccccc1)[c]1ccccc1)[S][Sn]([c]1ccccc1)([c]1ccccc1)[c]1ccccc1	> 0.1 µM	0.0646 µM	–
Cc1c2c(n3c(nc4ccccc43)c1C#N)NCC2	> 200 µM	> 200 µM	–

Compound	EC50	IC50	outcome
COC(=O)[C@@H]1[C@H](O)[C@H](C)[C@H](O)[C@@](C)(O)/C=C\C=C(C)C(=O)Nc2c(C)c(OC(C)=O)c3c(c2O)C(=O)C(C)=C2OCOC(=C23)C(C)=C[C@@](C)(O)[C@H](O)[C@@H](C)[C@H]1OC(C)=O	> 302 µM	17 µM and > 43.7 µM	–
CC(C(=O)O)c1ccc2c(c1)[nH]c1ccc(Cl)cc12 (configuration not stated)	> 245 µM	141 µM	–
C=CCONC(=O)c1ccc(Cl)cc1	> 617 µM	525 µM	–
C#CC1OC(C)(C)OC1C1OC(C)(C)OCC1O (configuration not stated)	–	–	inactive
COc1c(-c2ccccc2)oc2c(CP(=O)(OC)OC)cccc2c1=O	> 200 µM	56.2 µM	–
COc1cc(-c2ccc(Br)[nH]2)[nH]c1C=NCC(C)C	> 200 µM	10.5 µM	–
O=C(Nc1cc([N+](=O)[O-])cc([N+](=O)[O-])c1)OC1C2CCC1C1OC1C2 (configuration not stated)	> 14.8 µM	> 14.8 µM	–
COCCCCCCCCCCCC(=O)O	> 200 µM	> 200 µM	–
O=C1CCCc2cc3c(cc21)CC1(C3)Cc2cc3c(cc2C1)C(=O)CCC3	> 200 µM	0.977 µM	–
COc1ccc(-c2cc(=O)c3c(C)cc(O)cc3o2)cc1OC	> 200 µM	174 µM	–
CCOC(=O)c1cc(Sc2ccc(N)c(C(=O)OCC)c2)ccc1N	> 200 µM	15.5 µM	–
CCOP(=O)(OCC)/C(C#N)=C/c1ccc(Cl)cc1	> 316 µM	195 µM	–
COC(=O)C(Cc1c[nH]c2ccccc12)NC(=O)C(Cc1c[nH]c2ccccc12)NC(=O)C(Cc1c[nH]c2ccccc12)NC(=O)C(Cc1c[nH]c2ccccc12)NC(=O)C(Cc1c[nH]c2ccccc12)NC(=O)C(Cc1c[nH]c2ccccc12)NC(=O)OC(C)(C)C (configuration not stated) (Boc-WWWWWW-OMe; configuration not given here)	> 100 µM	60.3 µM	–
CN(CCO)c1nc2c(c(=O)[nH]1)CNCC2	> 288 µM	> 288 µM	–
COc1ccc(C(=O)c2ccc(OC)c(S(=O)(=O)N(C)C=O)c2)cc1S(=O)(=O)N(C)C=O	> 38.9 µM	> 38.9 µM	–
CC(C)C(Sc1nc(-c2ccccc2)c(-c2ccccc2)[nH]1)C(=O)NNC(=S)Nc1ccccc1 (configuration not stated)	> 51.3 µM	24 µM	–
COc1csc([C@H]2CCC3[C@@H]4CC=C5C[C@@H](O)CC[C@]5(C)C4CC[C@@]32C)n1 (some centres not stated)	> 17.4 µM	> 17.4 µM	–
O=S(=O)(O)c1ccc2c(N=Nc3ccc(/C=C/c4ccc(N=Nc5c(O)ccc6cc(S(=O)(=O)O)ccc56)cc4S(=O)(=O)O)c(S(=O)(=O)O)c3)c(O)ccc2c1	7.76 µM	97.7 µM	–
Oc1c(Br)ccc2cccnc12	> 20 µM	0.794 µM	–
